Measurements reported in US7402314B2, “In vivo activation of tumor-specific cytotoxic T cells” (The Scripps Research Institute, priority 1995, dated 2008).

Molecular target: A2.1/K^b (UniProt P01901+P04439, D140Y/D185E/D98H/E176V/G131W/I119V/I121R/I166T/N151K/N90K/Q86G/Q94H/R138H/R169H)
Format: binding, human-mouse chimeric

Sequence: ILKEPVHGV [HIV-1 RT 476-484, reference compound]
- binding of test peptide to A2.1/K^b (percent specific lysis of EA2/K^b targets by influenza A-specific CTL): efficiently bound to A2.1/K^b

Sequence: ILLVVVLGV [Peptide H9]
- inhibition of binding of the influenza A-derived peptide to A2.1/K^b by Her-2/Neu-derived peptides: binding at the highest efficiency
